# Columns and labels:
# Assay type in all cases: functional
# [1] = system: OVCAR-3; experiment: cells; conditions: Homo sapiens
# Description: Growth inhibition of human OVCAR-3 cells assessed as cell growth at 10 uM by SRB assay
# [2] = system: IGROV-1; experiment: cells; conditions: Homo sapiens
# Description: Growth inhibition of human IGROV1 cells assessed as drug level required for 50% reduction in net protein increase by SRB assay relative to control
# [3] = system: HCC 2998; experiment: cells; conditions: Homo sapiens
# Description: Growth inhibition of human HCC2998 cells assessed as drug level required for 50% reduction in net protein increase by SRB assay relative to control
# [4] = system: SNB-19; experiment: cells; conditions: Homo sapiens
# Description: Growth inhibition of human SNB19 cells assessed as drug level required for 50% reduction in net protein increase by SRB assay relative to control
# [5] = system: OVCAR-4; experiment: Cytotoxicity against human OVCAR4 cells by SRB assay; conditions: read-out: LC50 (the source's name)
# [6] = system: MOLT-4; experiment: cells; conditions: Homo sapiens
# Description: Growth inhibition of human MOLT4 cells assessed as cell growth at 10 uM by SRB assay
# [7] = system: PC-3; experiment: cells; conditions: Homo sapiens
# Description: Growth inhibition of human PC3 cells assessed as cell growth at 10 uM by SRB assay
# [8] = system: CCRF-CEM; experiment: cells; conditions: Homo sapiens
# Description: Growth inhibition of human CCRF-CEM cells assessed as drug level required for 50% reduction in net protein increase by SRB assay relative to control
# [9] = system: KM12; experiment: Cytotoxicity against human KM12 cells by SRB assay; conditions: read-out: LC50 (the source's name)
# [10] = system: MDA-MB-468; experiment: cells; conditions: Homo sapiens
# Description: Growth inhibition of human MDA-MB-468 cells assessed as cell growth at 10 uM by SRB assay
# [11] = system: T47D; experiment: Cytotoxicity against human T47D cells by SRB assay; conditions: read-out: LC50 (the source's name)
# [12] = system: SF-295; experiment: cells; conditions: Homo sapiens
# Description: Growth inhibition of human SF295 cells assessed as drug level required for 50% reduction in net protein increase by SRB assay relative to control
# [13] = system: OVCAR-4; experiment: cells; conditions: Homo sapiens
# Description: Growth inhibition of human OVCAR4 cells assessed as drug level required for 50% reduction in net protein increase by SRB assay relative to control
# [14] = system: SR; experiment: Cytotoxicity against human SR cells by SRB assay; conditions: read-out: LC50 (the source's name)
# [15] = system: HOP-92; experiment: cells; conditions: Homo sapiens
# Description: Growth inhibition of human HOP92 cells assessed as drug level required for 50% reduction in net protein increase by SRB assay relative to control
# [16] = system: HCC 2998; experiment: Cytotoxicity against human HCC2998 cells by SRB assay; conditions: read-out: LC50 (the source's name)
# [17] = system: DU-145; experiment: cells; conditions: Homo sapiens
# Description: Growth inhibition of human DU145 cells assessed as drug level required for 50% reduction in net protein increase by SRB assay relative to control
# [18] = system: CCRF-CEM; experiment: cells; conditions: Homo sapiens; remark: listed apart in the source
# Description: Growth inhibition of human CCRF-CEM cells assessed as cell growth at 10 uM by SRB assay
# [19] = system: SK-MEL-2; experiment: cells; conditions: Homo sapiens
# Description: Growth inhibition of human SK-MEL-2 cells assessed as cell growth at 10 uM by SRB assay
# [20] = system: MCF7; experiment: cells; conditions: Homo sapiens
# Description: Growth inhibition of human MCF7 cells assessed as cell growth at 10 uM by SRB assay
# [21] = system: M14; experiment: cells; conditions: Homo sapiens
# Description: Growth inhibition of human M14 cells assessed as cell growth at 10 uM by SRB assay
# [22] = system: HCC 2998; experiment: cells; conditions: Homo sapiens; remark: listed apart in the source
# Description: Growth inhibition of human HCC2998 cells assessed as cell growth at 10 uM by SRB assay
# [23] = system: Malme-3M; experiment: cells; conditions: Homo sapiens
# Description: Growth inhibition of human MALME-3M cells assessed as cell growth at 10 uM by SRB assay
# [24] = system: A549; experiment: cells; conditions: Homo sapiens
# Description: Growth inhibition of human A549 cells assessed as cell growth at 10 uM by SRB assay
# [25] = system: 786-0; experiment: cells; conditions: Homo sapiens
# Description: Growth inhibition of human 786-0 cells assessed as cell growth at 10 uM by SRB assay
# [26] = system: DU-145; experiment: Cytotoxicity against human DU145 cells by SRB assay; conditions: read-out: LC50 (the source's name)
# [27] = system: MDA-MB-468; experiment: cells; conditions: Homo sapiens; remark: listed apart in the source
# Description: Growth inhibition of human MDA-MB-468 cells assessed as drug level required for 50% reduction in net protein increase by SRB assay relative to control
# [28] = system: ACHN; experiment: cells; conditions: Homo sapiens
# Description: Growth inhibition of human ACHN cells assessed as drug level required for 50% reduction in net protein increase by SRB assay relative to control
# [29] = system: SK-OV-3; experiment: cells; conditions: Homo sapiens
# Description: Growth inhibition of human SKOV3 cells assessed as cell growth at 10 uM by SRB assay
# [30] = system: SNB-75; experiment: cells; conditions: Homo sapiens
# Description: Growth inhibition of human SNB75 cells assessed as drug level required for 50% reduction in net protein increase by SRB assay relative to control
# [31] = system: OVCAR-8; experiment: Cytotoxicity against human OVCAR8 cells by SRB assay; conditions: read-out: LC50 (the source's name)
# [32] = cells; conditions: Homo sapiens, Hs-578T
# Description: Growth inhibition of human Hs 578T cells assessed as cell growth at 10 uM by SRB assay
# [33] = system: A498; experiment: cells; conditions: Homo sapiens
# Description: Growth inhibition of human A498 cells assessed as cell growth at 10 uM by SRB assay
# [34] = system: UACC-257; experiment: cells; conditions: Homo sapiens
# Description: Growth inhibition of human UACC257 cells assessed as drug level required for 50% reduction in net protein increase by SRB assay relative to control
# [35] = system: U-251; experiment: cells; conditions: Homo sapiens
# Description: Growth inhibition of human U251 cells assessed as drug level required for 50% reduction in net protein increase by SRB assay relative to control
# [36] = system: MDA-MB-435; experiment: cells; conditions: Homo sapiens
# Description: Growth inhibition of human MDA-MB-435 cells assessed as drug level required for 50% reduction in net protein increase by SRB assay relative to control
# [37] = system: HOP-62; experiment: cells; conditions: Homo sapiens
# Description: Growth inhibition of human HOP62 cells assessed as drug level required for 50% reduction in net protein increase by SRB assay relative to control
# [38] = system: NCI-H460; experiment: cells; conditions: Homo sapiens
# Description: Growth inhibition of human NCI-H460 cells assessed as cell growth at 10 uM by SRB assay
# [39] = system: NCI-H23; experiment: cells; conditions: Homo sapiens
# Description: Growth inhibition of human NCI-H23 cells assessed as cell growth at 10 uM by SRB assay
# [40] = system: 786-0; experiment: cells; conditions: Homo sapiens, read-out: LC50 (the source's name)
# Description: Cytotoxicity against human 786-0 cells by SRB assay
# [41] = system: NCI-H522; experiment: Cytotoxicity against human NCI-H522 cells by SRB assay; conditions: read-out: LC50 (the source's name)
# [42] = system: SN12C; experiment: cells; conditions: Homo sapiens
# Description: Growth inhibition of human SN12C cells assessed as drug level required for 50% reduction in net protein increase by SRB assay relative to control
# [43] = system: MCF7; experiment: Cytotoxicity against human MCF7 cells by SRB assay; conditions: read-out: LC50 (the source's name)
# [44] = system: SW-620; experiment: Cytotoxicity against human SW620 cells by SRB assay; conditions: read-out: LC50 (the source's name)
# [45] = system: Malme-3M; experiment: cells; conditions: Homo sapiens; remark: listed apart in the source
# Description: Growth inhibition of human MALME-3M cells assessed as drug level required for 50% reduction in net protein increase by SRB assay relative to control
# [46] = system: EKVX; experiment: cells; conditions: Homo sapiens
# Description: Growth inhibition of human EKVX cells assessed as drug level required for 50% reduction in net protein increase by SRB assay relative to control
# [47] = system: BT-549; experiment: cells; conditions: Homo sapiens
# Description: Growth inhibition of human BT549 cells assessed as drug level required for 50% reduction in net protein increase by SRB assay relative to control
# [48] = system: COLO 205; experiment: cells; conditions: Homo sapiens
# Description: Growth inhibition of human COLO205 cells assessed as drug level required for 50% reduction in net protein increase by SRB assay relative to control
# [49] = system: 786-0; experiment: cells; conditions: Homo sapiens; remark: listed apart in the source
# Description: Growth inhibition of human 786-0 cells assessed as drug level required for 50% reduction in net protein increase by SRB assay relative to control
# [50] = system: IGROV-1; experiment: Cytotoxicity against human IGROV1 cells by SRB assay; conditions: read-out: LC50 (the source's name)
# [51] = system: SF-539; experiment: cells; conditions: Homo sapiens
# Description: Growth inhibition of human SF539 cells assessed as cell growth at 10 uM by SRB assay
# [52] = system: LOX IMVI; experiment: cells; conditions: Homo sapiens
# Description: Growth inhibition of human LOXIMVI cells assessed as drug level required for 50% reduction in net protein increase by SRB assay relative to control
# [53] = cells; conditions: Homo sapiens, Hs-578T; read-out: LC50 (the source's name)
# Description: Cytotoxicity against human Hs 578T cells by SRB assay
# [54] = system: SK-OV-3; experiment: Cytotoxicity against human SKOV3 cells by SRB assay; conditions: read-out: LC50 (the source's name)
# [55] = system: UACC-62; experiment: cells; conditions: Homo sapiens
# Description: Growth inhibition of human UACC62 cells assessed as cell growth at 10 uM by SRB assay
# [56] = system: COLO 205; experiment: cells; conditions: Homo sapiens; remark: listed apart in the source
# Description: Growth inhibition of human COLO205 cells assessed as cell growth at 10 uM by SRB assay
# [57] = system: A549; experiment: cells; conditions: Homo sapiens; remark: listed apart in the source
# Description: Growth inhibition of human A549 cells assessed as drug level required for 50% reduction in net protein increase by SRB assay relative to control
# [58] = system: MOLT-4; experiment: Cytotoxicity against human MOLT4 cells by SRB assay; conditions: read-out: LC50 (the source's name)
# [59] = system: MDA-MB-468; experiment: Cytotoxicity against human MDA-MB-468 cells by SRB assay; conditions: read-out: LC50 (the source's name)
# [60] = system: Malme-3M; experiment: Cytotoxicity against human MALME-3M cells by SRB assay; conditions: read-out: LC50 (the source's name)
# [61] = system: RXF 393; experiment: Cytotoxicity against human RFX393 cells by SRB assay; conditions: read-out: LC50 (the source's name)
# [62] = system: RPMI-8226; experiment: cells; conditions: Homo sapiens
# Description: Growth inhibition of human RPMI8226 cells assessed as cell growth at 10 uM by SRB assay
# [63] = system: MDA-MB-231; experiment: cells; conditions: Homo sapiens
# Description: Growth inhibition of human MDA-MB-231 cells assessed as cell growth at 10 uM by SRB assay
# [64] = system: M14; experiment: Cytotoxicity against human M14 cells by SRB assay; conditions: read-out: LC50 (the source's name)
# [65] = system: OVCAR-5; experiment: cells; conditions: Homo sapiens
# Description: Growth inhibition of human OVCAR5 cells assessed as drug level required for 50% reduction in net protein increase by SRB assay relative to control
# [66] = system: OVCAR-8; experiment: cells; conditions: Homo sapiens
# Description: Growth inhibition of human OVCAR8 cells assessed as drug level required for 50% reduction in net protein increase by SRB assay relative to control
# [67] = system: SK-MEL-5; experiment: cells; conditions: Homo sapiens
# Description: Growth inhibition of human SK-MEL-5 cells assessed as cell growth at 10 uM by SRB assay
# [68] = system: PC-3; experiment: Cytotoxicity against human PC3 cells by SRB assay; conditions: read-out: LC50 (the source's name)
# [69] = system: K562; experiment: cells; conditions: Homo sapiens
# Description: Growth inhibition of human K562 cells assessed as cell growth at 10 uM by SRB assay
# [70] = system: UACC-257; experiment: cells; conditions: Homo sapiens; remark: listed apart in the source
# Description: Growth inhibition of human UACC257 cells assessed as cell growth at 10 uM by SRB assay
# [71] = system: NCI-H522; experiment: cells; conditions: Homo sapiens
# Description: Growth inhibition of human NCI-H522 cells assessed as drug level required for 50% reduction in net protein increase by SRB assay relative to control
structure (smiles),measurement,setting,value
CCCCCCCC[N+](C)(CCCCCCCC)CCCCCCCC.O=S(=O)([N-]S(=O)(=O)C(F)(F)F)C(F)(F)F,growth at 10 µM,[1],-100%
same,GI50,[2],0.388 µM
same,GI50,[3],0.425 µM
same,GI50,[4],0.587 µM
same,CC50,[5],5.8 µM
same,growth at 10 µM,[6],37.4%
same,growth at 10 µM,[7],-91.3%
same,GI50,[8],0.19 µM
same,CC50,[9],5.31 µM
same,growth at 10 µM,[10],-90.1%
same,CC50,[11],> 100 µM
same,GI50,[12],0.333 µM
same,GI50,[13],0.309 µM
same,CC50,[14],5.13 µM
same,GI50,[15],0.206 µM
same,CC50,[16],6.96 µM
same,GI50,[17],0.407 µM
same,growth at 10 µM,[18],85.7%
same,growth at 10 µM,[19],-94.1%
same,growth at 10 µM,[20],-100%
same,growth at 10 µM,[21],-91.7%
same,growth at 10 µM,[22],-98%
same,growth at 10 µM,[23],-94.1%
same,growth at 10 µM,[24],-100%
same,growth at 10 µM,[25],-95.8%
same,CC50,[26],4.44 µM
same,GI50,[27],0.119 µM
same,GI50,[28],0.63 µM
same,growth at 10 µM,[29],-97.8%
same,GI50,[30],0.336 µM
same,CC50,[31],5.88 µM
same,growth at 10 µM,[32],-66.7%
same,growth at 10 µM,[33],-100%
same,GI50,[34],0.411 µM
same,GI50,[35],0.334 µM
same,GI50,[36],0.335 µM
same,GI50,[37],0.787 µM
same,growth at 10 µM,[38],-100%
same,growth at 10 µM,[39],-97%
same,CC50,[40],5.02 µM
same,CC50,[41],5.4 µM
same,GI50,[42],0.367 µM
same,CC50,[43],4.02 µM
same,CC50,[44],10 µM
same,GI50,[45],0.29 µM
same,GI50,[46],0.215 µM
same,GI50,[47],0.421 µM
same,GI50,[48],0.292 µM
same,GI50,[49],0.415 µM
same,CC50,[50],> 100 µM
same,growth at 10 µM,[51],-100%
same,GI50,[52],0.192 µM
same,CC50,[53],> 100 µM
same,CC50,[54],5.12 µM
same,growth at 10 µM,[55],-94.5%
same,growth at 10 µM,[56],-60.6%
same,GI50,[57],1.9 µM
same,CC50,[58],4.89 µM
same,CC50,[59],2.11 µM
same,CC50,[60],4.11 µM
same,CC50,[61],5.75 µM
same,growth at 10 µM,[62],44.2%
same,growth at 10 µM,[63],-87%
same,CC50,[64],9.19 µM
same,GI50,[65],1.24 µM
same,GI50,[66],0.468 µM
same,growth at 10 µM,[67],-100%
same,CC50,[68],3.99 µM
same,growth at 10 µM,[69],86.9%
same,growth at 10 µM,[70],-95.2%
same,GI50,[71],0.287 µM
CCCCCCCCCCCCCCCCCCPCCCCCCCCCCCCCC (configuration not stated) [MONO(OCTADECYL(TETRADECYL)PHOSPHONIUM) MONO(HEXAFLUOROPHOSPHATE(V)) MONO(TETRAFLUOROBORATE)],growth at 10 µM,[1],-51%
same,GI50,[2],0.316 µM
same,GI50,[3],0.297 µM
same,GI50,[4],0.097 µM
same,CC50,[5],> 100 µM
same,growth at 10 µM,[6],7.02%
same,growth at 10 µM,[7],-32.7%
same,GI50,[8],0.034 µM
same,CC50,[9],> 100 µM
same,growth at 10 µM,[10],-62%
same,CC50,[11],> 100 µM
same,GI50,[12],0.251 µM
same,GI50,[13],0.125 µM
same,CC50,[14],> 100 µM
same,GI50,[15],0.038 µM
same,CC50,[16],> 100 µM
same,GI50,[17],0.357 µM
same,growth at 10 µM,[18],23.3%
same,growth at 10 µM,[19],-64.7%
same,growth at 10 µM,[20],-40.8%
same,growth at 10 µM,[21],-67.2%
same,growth at 10 µM,[22],-76.4%
same,growth at 10 µM,[23],-61.6%
same,growth at 10 µM,[24],2.21%
same,growth at 10 µM,[25],-74%
same,CC50,[26],> 100 µM
same,GI50,[27],0.053 µM
same,GI50,[28],0.244 µM
same,growth at 10 µM,[29],-68.7%
same,GI50,[30],0.223 µM
same,CC50,[31],> 100 µM
same,growth at 10 µM,[32],-44.2%
same,growth at 10 µM,[33],-75.6%
same,GI50,[34],0.272 µM
same,GI50,[35],0.037 µM
same,GI50,[36],0.05 µM
same,GI50,[37],0.399 µM
same,growth at 10 µM,[38],-41.9%
same,growth at 10 µM,[39],-61%
same,CC50,[40],> 100 µM
same,CC50,[41],> 100 µM
same,GI50,[42],0.062 µM
same,CC50,[43],> 100 µM
same,CC50,[44],> 100 µM
same,GI50,[45],0.034 µM
same,GI50,[46],0.206 µM
same,GI50,[47],0.094 µM
same,GI50,[48],0.243 µM
same,GI50,[49],0.211 µM
same,CC50,[50],> 100 µM
same,growth at 10 µM,[51],-83.2%
same,GI50,[52],0.05 µM
same,CC50,[53],> 100 µM
same,CC50,[54],> 100 µM
same,growth at 10 µM,[55],-77.4%
same,growth at 10 µM,[56],-6.75%
same,GI50,[57],0.391 µM
same,CC50,[58],> 100 µM
same,CC50,[59],> 100 µM
same,CC50,[60],> 100 µM
same,CC50,[61],> 100 µM
same,growth at 10 µM,[62],27.2%
same,growth at 10 µM,[63],-74.5%
same,CC50,[64],> 100 µM
same,GI50,[65],0.337 µM
same,GI50,[66],0.229 µM
same,growth at 10 µM,[67],-69.2%
same,CC50,[68],> 100 µM
same,growth at 10 µM,[69],16.6%
same,growth at 10 µM,[70],-59%
same,GI50,[71],0.158 µM
